pIC50: −log10 of the molar value.
Experiments:
[1] = target: PI3K δ (Homo sapiens (Human), UniProt O00329); assay: PI3-Kinase HTRF assay; type: biochemical
From the text: A PI3-Kinase HTRF® assay kit (cat No. 33-016) purchased from Millipore Corporation is used to screen compounds provided herein. This assay uses specific, high affinity binding of the GRP1 pleckstrin homology (PH) domain to PIP3, the product of a Class 1A or 1B PI3 Kinase acting on its physiological substrate PIP2. During the detection phase of the assay, a complex is generated between the GST-tagged PH domain and biotinylated short chain PIP3. The biotinylated PIP3 and the GST-tagged PH domain recruited fluorophores (Streptavidin-Allophycocyanin and Europium-labeled anti-GST respectively) to form the fluorescence resonance energy transfer (FRET) architecture, generating a stable time-resolved FRET signal. The FRET complex is disrupted in a competitive manner by non-biotinylated PIP3, a product formed in the PI3 Kinase assay.
PI3 Kinase α, γ or δ activity is assayed using the PI3 Kinase HTRF® assay kit (catalogue No. 33-016) purchased from Millipore Corporation. Purified recombinant PI3Kα (catalogue No. 14-602-K), PI3Kβ (catalogue No. 14-603-K), PI3Kγ (catalogue No. 14-558-K), and PI3Kδ (catalogue No. 14-604-K) are obtained from Millipore Corporation. Purified recombinant PI3K enzyme is used to catalyze the phosphorylation of phosphatidylinositol 4,5-bisphosphate (PIP2 at 10 μM) to phosphatidylinositol 3,4,5-trisphosphate (PIP3) in the presence of 10 μM ATP. The assay is carried out in 384-well format and detected using a Perkin Elmer EnVision Xcite Multilabel Reader. Emission ratios are converted into percent inhibitions and imported into GraphPad Prism software. […] IC50 values are determined using a nonlinear regression model available in GraphPad Prism 5.
Other commercial kits or systems for assaying PI3-K activities are available. The commercially available kits or systems can be used to screen for inhibitors and/or agonists of PI3-Ks including, but not limited to, PI 3-Kinase α, β, δ, and γ. […] The plate is sealed, incubated for 1 hour at room temperature, and then read on an appropriate plate reader. Data is analyzed and IC50s are generated using GraphPad Prism 5.

[2] = target: PI3K γ (Homo sapiens (Human), UniProt P48736); assay: PI3-Kinase HTRF assay; type: biochemical
Chain of PI3K γ (P48736 whole entry, the tested form may be a part): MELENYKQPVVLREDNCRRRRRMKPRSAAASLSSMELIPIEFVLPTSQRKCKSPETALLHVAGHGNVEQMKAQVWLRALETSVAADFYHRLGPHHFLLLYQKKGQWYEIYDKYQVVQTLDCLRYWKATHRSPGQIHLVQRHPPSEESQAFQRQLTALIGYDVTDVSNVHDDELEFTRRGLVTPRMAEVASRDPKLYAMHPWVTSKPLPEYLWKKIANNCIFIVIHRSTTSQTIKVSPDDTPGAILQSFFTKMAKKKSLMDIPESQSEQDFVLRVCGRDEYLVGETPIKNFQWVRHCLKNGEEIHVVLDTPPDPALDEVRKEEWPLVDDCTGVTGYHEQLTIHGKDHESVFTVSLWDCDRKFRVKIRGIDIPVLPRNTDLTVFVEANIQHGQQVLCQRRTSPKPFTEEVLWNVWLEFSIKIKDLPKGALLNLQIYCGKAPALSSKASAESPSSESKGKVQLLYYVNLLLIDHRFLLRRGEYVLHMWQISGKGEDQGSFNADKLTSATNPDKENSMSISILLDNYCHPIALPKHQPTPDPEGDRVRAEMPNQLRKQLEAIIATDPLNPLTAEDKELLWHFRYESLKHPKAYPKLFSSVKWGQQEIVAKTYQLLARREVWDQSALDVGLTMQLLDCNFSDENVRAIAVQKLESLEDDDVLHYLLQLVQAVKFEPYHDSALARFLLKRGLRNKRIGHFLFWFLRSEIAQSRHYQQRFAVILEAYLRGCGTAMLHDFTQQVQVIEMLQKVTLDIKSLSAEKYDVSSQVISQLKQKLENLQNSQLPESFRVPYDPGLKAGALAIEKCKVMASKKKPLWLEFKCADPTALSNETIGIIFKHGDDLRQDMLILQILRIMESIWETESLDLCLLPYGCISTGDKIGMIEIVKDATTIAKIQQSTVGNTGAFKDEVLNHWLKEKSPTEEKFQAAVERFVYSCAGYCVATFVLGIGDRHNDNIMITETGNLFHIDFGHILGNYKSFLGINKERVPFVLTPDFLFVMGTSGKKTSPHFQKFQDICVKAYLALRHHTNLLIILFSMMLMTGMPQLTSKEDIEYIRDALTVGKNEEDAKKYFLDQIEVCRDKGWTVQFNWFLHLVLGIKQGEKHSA
From the text: The biotinylated PIP3 and the GST-tagged PH domain recruited fluorophores (Streptavidin-Allophycocyanin and Europium-labeled anti-GST respectively) to form the fluorescence resonance energy transfer (FRET) architecture, generating a stable time-resolved FRET signal.
Other commercial kits or systems for assaying PI3-K activities are available. […] An exemplary system is PI 3-Kinase (human) HTRF™ Assay from Upstate. […] Briefly, the assay is a time resolved FRET assay that indirectly measures PIP3 product formed by the activity of a PI3-K. The kinase reaction is performed in a microtiter plate (e.g., a 384 well microtiter plate). […] The plate is sealed and incubated for 15 minutes at room temperature. […] The plate is sealed and incubated for 1 hour at room temperature. […] The plate is sealed, incubated for 1 hour at room temperature, and then read on an appropriate plate reader. Data is analyzed and IC50s are generated using GraphPad Prism 5.

[3] = test system: PI3K/Akt/mTOR signaling (phosphorylation of Akt-S473 and S6); assay: Kinase signaling in blood (phosflow); type: cell-based; details: anti-CD3 stimulated splenocytes or peripheral blood mononuclear cells
Protocol: PI3K/Akt/mTOR signaling is measured in blood cells using the phosflow method (Methods Enzymol. (2007) 434:131-54). This method is by nature a single cell assay so that cellular heterogeneity can be detected rather than population averages. This allows concurrent distinction of signaling states in different populations defined by other markers. Phosflow is also highly quantitative. To test the effects of one or more compounds provided herein, unfractionated splenocytes, or peripheral blood mononuclear cells are stimulated with anti-CD3 to initiate T-cell receptor signaling. The cells are then fixed and stained for surface markers and intracellular phosphoproteins. […]
Similarly, aliquots of whole blood are incubated for 15 minutes with vehicle (e.g., 0.1% DMSO) or kinase inhibitors at various concentrations, before addition of stimuli to crosslink the T cell receptor (TCR) (anti-CD3 with secondary antibody) or the B cell receptor (BCR) using anti-kappa light chain antibody (Fab′2 fragments). […] The level of phosphorylation of kinase substrates such as Akt and S6 are then measured by incubating the fixed cells with labeled antibodies specific to the phosphorylated isoforms of these proteins. The population of cells are then analyzed by flow cytometry.

Chain of PI3K δ (O00329 whole entry, the tested form may be a part): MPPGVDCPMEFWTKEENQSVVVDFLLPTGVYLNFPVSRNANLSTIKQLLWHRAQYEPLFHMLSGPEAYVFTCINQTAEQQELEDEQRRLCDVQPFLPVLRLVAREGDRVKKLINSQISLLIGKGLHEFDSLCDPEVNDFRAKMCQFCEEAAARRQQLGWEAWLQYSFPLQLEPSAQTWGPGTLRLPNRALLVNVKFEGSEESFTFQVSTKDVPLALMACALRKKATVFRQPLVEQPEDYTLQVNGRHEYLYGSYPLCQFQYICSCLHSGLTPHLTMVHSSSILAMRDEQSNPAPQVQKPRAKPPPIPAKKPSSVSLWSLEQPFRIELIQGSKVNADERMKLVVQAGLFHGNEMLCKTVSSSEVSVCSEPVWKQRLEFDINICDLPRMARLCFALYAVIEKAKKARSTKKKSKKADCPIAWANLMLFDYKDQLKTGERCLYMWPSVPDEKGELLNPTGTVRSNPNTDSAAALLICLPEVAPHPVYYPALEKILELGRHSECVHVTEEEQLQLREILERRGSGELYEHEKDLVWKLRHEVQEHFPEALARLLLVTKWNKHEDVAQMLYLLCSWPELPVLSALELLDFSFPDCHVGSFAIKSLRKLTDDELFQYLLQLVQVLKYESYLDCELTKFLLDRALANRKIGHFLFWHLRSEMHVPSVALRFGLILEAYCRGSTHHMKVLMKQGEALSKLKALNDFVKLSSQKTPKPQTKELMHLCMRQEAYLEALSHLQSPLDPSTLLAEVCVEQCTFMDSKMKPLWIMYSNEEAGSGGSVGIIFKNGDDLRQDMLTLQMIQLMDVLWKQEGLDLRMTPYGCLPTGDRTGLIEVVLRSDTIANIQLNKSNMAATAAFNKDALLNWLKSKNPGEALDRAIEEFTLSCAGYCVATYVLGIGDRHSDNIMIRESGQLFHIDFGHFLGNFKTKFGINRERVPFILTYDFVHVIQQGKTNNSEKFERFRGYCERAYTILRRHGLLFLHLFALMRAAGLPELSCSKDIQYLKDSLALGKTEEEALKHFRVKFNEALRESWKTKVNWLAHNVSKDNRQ
Chain of PI3K δ (P27986 whole entry partner, the tested form may be a part): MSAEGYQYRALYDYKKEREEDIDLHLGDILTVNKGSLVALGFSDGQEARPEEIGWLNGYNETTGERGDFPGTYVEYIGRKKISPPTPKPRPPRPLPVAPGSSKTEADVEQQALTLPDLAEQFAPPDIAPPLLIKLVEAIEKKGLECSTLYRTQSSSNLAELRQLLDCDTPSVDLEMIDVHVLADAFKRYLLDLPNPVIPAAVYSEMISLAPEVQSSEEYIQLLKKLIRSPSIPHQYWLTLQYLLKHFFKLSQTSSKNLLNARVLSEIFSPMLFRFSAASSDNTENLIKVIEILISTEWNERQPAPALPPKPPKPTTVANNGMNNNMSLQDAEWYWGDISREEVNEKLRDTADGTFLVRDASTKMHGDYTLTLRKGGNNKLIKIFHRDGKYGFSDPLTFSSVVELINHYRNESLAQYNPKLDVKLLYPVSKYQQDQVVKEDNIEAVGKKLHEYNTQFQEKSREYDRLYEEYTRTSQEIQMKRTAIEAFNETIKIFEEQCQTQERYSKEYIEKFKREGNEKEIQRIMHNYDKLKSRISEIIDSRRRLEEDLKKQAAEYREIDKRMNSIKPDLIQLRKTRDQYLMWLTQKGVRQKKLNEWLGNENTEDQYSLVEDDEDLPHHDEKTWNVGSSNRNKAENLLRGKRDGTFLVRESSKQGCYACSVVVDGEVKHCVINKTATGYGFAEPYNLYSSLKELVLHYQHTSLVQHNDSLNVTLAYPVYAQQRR

pIC50 [1]	pIC50 [2]	PI3K δ/PI3K γ IC50 (selectivity) ([2]; δ/γ IC50 selectivity)	Akt phosphorylation (Akt-S473) [3]	S6 phosphorylation [3]	SMILES
< 5.00	6.30 to 7.00	Y (Y = 50 to <850)	–	–	C[C@H](NC(=O)c1c(N)nn2ccccc12)c1cc2cccc(C#Cc3cnn(C)c3)c2c(=O)n1-c1ccccc1 [Compound 1]
5.30 to 6.00	–	–	–	–	C[C@H](NC(=O)c1c(N)nn2ccccc12)c1cc2cccc(Cl)c2c(=O)n1-c1ccccc1 [Compound 31]
< 5.00	< 5.30	–	–	–	C[C@H](NC(=O)c1c(N)ncc2ccccc12)c1cc2cccc(Cl)c2c(=O)n1-c1ccccc1 [Compound 3626]
–	–	–	enhances	inhibits	CO[C@H]1C[C@@H]2CC[C@@H](C)[C@@](O)(O2)C(=O)C(=O)N2CCCC[C@H]2C(=O)O[C@H]([C@H](C)C[C@@H]2CC[C@@H](O)[C@H](OC)C2)CC(=O)[C@H](C)/C=C(\C)[C@@H](O)[C@@H](OC)C(=O)[C@H](C)C[C@H](C)/C=C/C=C/C=C/1C [rapamycin]

Reference: patent US10919914B2, “Heterocyclic compounds and uses thereof” (Infinity Pharmaceuticals, Inc., priority 2016, dated 2021)
